Bridges are numbered along the chain shown (N, C = ends). Where no end group is shown, it is not given here. [ ]: non-standard residue; d: D form.
How the values were obtained:
[1] = cited from earlier work
[2] = test system: chemokine-induced migration; test: chemokine-induced leukocyte migration in vitro (prior work); type: cell-based; conditions: compared with (S)-3-(undec-10-enoyl)-aminoglutarimide
[3] = stability in human serum; type: in vitro ADME; conditions: 37° C.
[4] = test system: chemokine-induced migration; conditions: cited from earlier work
[5] = oral route or injection; comparable to dexamethasone; cited from earlier work

c(DCys-DGin-DIle-DTrp-DLys-DGln-DLys-DPro-DAsp-DLeu-DCys)-NH2 ([dC][dQ][dI][dW][dK][dQ][dK][dP][dD][dL][dC]-NH2; disulfide 1-11 (inferred)) [NR58-3.14.3]
half-life period of clearance from blood plasma ([1]; after intravenous injection): less than 30 minutes
oral bioavailability ([1]; in vivo, po): not orally bioavailable

C=CCCCCCCCCC(=O)[C@@H]1CCCNC1=O [(S)-3-(undec-10-enoyl)-tetrahydropyridin-2-one]
potency compared with the parental molecule [2]: considerably reduced potency
time completely stable in human serum [3]: at least 7 days

O=C1NCCCC[C@@H]1NC(=O)C12CC3CC(CC(C3)C1)C2 [(S)-3-(1′-adamantanecarbonylamino)caprolactam]
inhibition of leukocyte migration or recruitment in vitro (in words) [4]: potent inhibitor
anti-inflammatory activity in vivo (in words) [5]: powerful anti-inflammatory activity

Reference: patent US8076323B2, “Anti-inflammatory agents” (Cambridge Enterprise Limited, priority 2005, dated 2011)
